Test results published in the NIST ThermoML archive (doi:10.1016/j.jct.2015.12.005).

Assay: molar heat capacity at saturation pressure

c1ccc2c(c1)CCC2 [indane]
molar heat capacity [J/K/mol]
Conditions	Crystal 1, Vacuum adiabatic calorimetry	Crystal 2, Vacuum adiabatic calorimetry
5 K	–	0.291
5.31 K	–	0.3492
6.26 K	–	0.6236
7.189 K	–	0.9811
8.165 K	–	1.463
9.174 K	–	2.12
10 K	–	2.735
10.22 K	–	2.918
11.36 K	–	3.891
12.63 K	–	5.097
14.04 K	–	6.61
15.6 K	–	8.364
17.35 K	–	10.43
19.29 K	–	12.76
20 K	–	13.61
21.45 K	–	15.35
23.86 K	–	18.19
26.55 K	–	21.27
29.53 K	–	24.47
30 K	–	24.96
32.82 K	–	27.82
36.45 K	–	31.27
40 K	–	34.44
40.47 K	–	34.84
44.94 K	–	38.64
49.87 K	–	42.67
50 K	–	42.77
52.71 K	–	44.96
55.33 K	–	47.14
57.68 K	–	49.16
60 K	–	51.24
62 K	–	53.22
62.18 K	–	53.45
62.48 K	–	53.74
63.41 K	–	54.75
64 K	–	55.47
66 K	–	57.83
67.11 K	–	59.51
68 K	–	60.76
70 K	–	64.04
70.7 K	–	67.01
70.76 K	–	67.17
72 K	–	67.68
72.08 K	–	72.89
72.27 K	–	74.46
72.75 K	–	77.96
73.08 K	–	82.15
73.38 K	–	89.8
73.83 K	57.49	71.43
74 K	57.55	–
74.14 K	63.18	–
74.52 K	59.93	–
74.89 K	59.45	–
76 K	58.28	–
76.02 K	59.19	–
77.68 K	59.3	–
78 K	59.01	–
79.98 K	59.88	–
80 K	59.74	–
82.01 K	60.53	–
82.05 K	60.55	–
82.97 K	60.84	–
83.17 K	60.91	–
90 K	63.39	–
91.46 K	63.9	–
100 K	67.07	–
100.48 K	67.26	–
110.07 K	70.8	–
119.85 K	74.38	–
120 K	74.45	–
129.73 K	78.16	–
138.66 K	81.54	–
139.61 K	81.94	–
140 K	82.06	–
148.52 K	85.42	–
158.5 K	89.5	–
160 K	90.14	–
168.63 K	93.87	–
178.81 K	98.43	–
180 K	99	–
184.22 K	100.9	–
189.01 K	103.32	–
194.75 K	106.22	–
199.29 K	108.5	–
200 K	108.89	–
205.19 K	111.62	–
209.54 K	113.96	–
212.42 K	115.59	–
214.32 K	116.35	–
220 K	119.51	–
221.79 K	120.47	–

Liquid
Conditions	molar heat capacity [J/K/mol]
221.79 K, Vacuum adiabatic calorimetry	163.91
228.22 K, Vacuum adiabatic calorimetry	165.72
228.34 K, Vacuum adiabatic calorimetry	165.76
229.69 K, Vacuum adiabatic calorimetry	166.13
229.78 K, Vacuum adiabatic calorimetry	166.24
230 K, Vacuum adiabatic calorimetry	166.22
236.45 K, Vacuum adiabatic calorimetry	168.04
238.81 K, Vacuum adiabatic calorimetry	168.76
240 K, Vacuum adiabatic calorimetry	169.13
250 K, Vacuum adiabatic calorimetry	172.31
250.13 K, Vacuum adiabatic calorimetry	172.35
260 K, Vacuum adiabatic calorimetry	175.75
262.1 K, Vacuum adiabatic calorimetry	176.48
262.28 K, Vacuum adiabatic calorimetry	176.54
270 K, Vacuum adiabatic calorimetry	179.48
274.49 K, Vacuum adiabatic calorimetry	181.2
275.32 K, Vacuum adiabatic calorimetry	181.5
280 K, Vacuum adiabatic calorimetry	183.04
286.77 K, Vacuum adiabatic calorimetry	185.35
288.6 K, Vacuum adiabatic calorimetry	185.93
290 K, Vacuum adiabatic calorimetry	186.46
297.89 K, Vacuum adiabatic calorimetry	189.38
298.15 K, Vacuum adiabatic calorimetry	189.48
299.11 K, Vacuum adiabatic calorimetry	189.82
300 K, Vacuum adiabatic calorimetry	190.18
301.9 K, Vacuum adiabatic calorimetry	190.91
310 K, Vacuum adiabatic calorimetry	194.12
310.2 K, Vacuum adiabatic calorimetry	194.19
311.46 K, Vacuum adiabatic calorimetry	194.67
320 K, Vacuum adiabatic calorimetry	198.07
322.46 K, Vacuum adiabatic calorimetry	199.08
330 K, Vacuum adiabatic calorimetry	202.15
333.38 K, Vacuum adiabatic calorimetry	203.54
334.63 K, Vacuum adiabatic calorimetry	204.04
340 K, Vacuum adiabatic calorimetry	206.3
347.49 K, Vacuum adiabatic calorimetry	209.45
350 K, Vacuum adiabatic calorimetry	210.48
360 K, Vacuum adiabatic calorimetry	214.61
360.87 K, Vacuum adiabatic calorimetry	214.96
370 K, Vacuum adiabatic calorimetry	218.8
374.71 K, Vacuum adiabatic calorimetry	220.8
380 K, Vacuum adiabatic calorimetry	223.03
388.61 K, Vacuum adiabatic calorimetry	226.66
390 K, Vacuum adiabatic calorimetry	227.25
400 K, Vacuum adiabatic calorimetry	231.47
402.42 K, Vacuum adiabatic calorimetry	232.49
409.24 K, Vacuum adiabatic calorimetry	235.36
410 K, Vacuum adiabatic calorimetry	235.68
415.99 K, Vacuum adiabatic calorimetry	238.21
420 K, Vacuum adiabatic calorimetry	239.88
426.54 K, Vacuum adiabatic calorimetry	242.6
428.9 K, Vacuum adiabatic calorimetry	243.53
430 K, Vacuum adiabatic calorimetry	244.05
439.86 K, Vacuum adiabatic calorimetry	248.28
440 K, Vacuum adiabatic calorimetry	248.4
450 K, Small sample (50 mg) DSC	253.17
460 K, Small sample (50 mg) DSC	258.04
470 K, Small sample (50 mg) DSC	262.7
480 K, Small sample (50 mg) DSC	267.2
490 K, Small sample (50 mg) DSC	271.71
500 K, Small sample (50 mg) DSC	276.21
510 K, Small sample (50 mg) DSC	280.72
520 K, Small sample (50 mg) DSC	285.23
530 K, Small sample (50 mg) DSC	289.72
540 K, Small sample (50 mg) DSC	294.22
550 K, Small sample (50 mg) DSC	298.7
560 K, Small sample (50 mg) DSC	303.18
570 K, Small sample (50 mg) DSC	307.65
580 K, Small sample (50 mg) DSC	312.12
590 K, Small sample (50 mg) DSC	316.59
600 K, Small sample (50 mg) DSC	321.05
